Measurements as given in patent US8008303B2, “Biphenyl derivatives and their use in treating hepatitis C” (AstraZeneca AB, priority 2005, dated 2011).
Read-outs that look alike come from different tables or passages of the source.

What was measured:
[1] = system: HCV replicon cells Huh 9B; test: HCV replicon assay (luciferase readout); assay type: cell-based
Description: (§1) HCV replicon cells Huh 9B (ReBlikon), containing the firefly luciferase-ubiquitin-neomycin phosphotransferase fusion protein and EMCV-IRES driven HCV polyprotein with cell culture adaptive mutations.
Cells were cultured at 37° C. in a 5% CO2 environment and split twice a week on seeding at 2×10^6 cells/flask on day 1 and 1×10^6 3 days later. G418 at 0.5 mg/ml was added to the culture medium but not the assay medium.
The culture medium consisted of DMEM with […] glucose and glutamax (Gibco 61965-026) supplemented with 1× non-essential amino acids (Invitrogen 11140-035), penicillin (100 IU/ml)/streptomycin (100 μg/ml) (Invitrogen 15140-122), FCS (10%, 50 ml) and 1 mg/ml G418 (Invitrogen 10131-027) & 10% Australian foetal calf serum (Invitrogen 10099-141).
A flask of cells was trypsinised and a cell count carried out. Cells were diluted to 100,000 cells/ml and 100 μl of this used to seed one opaque white 96-well plate (for the replicon assay) and one flat-bottomed clear plate (for the tox assay) for every seven compounds to be tested for IC50. Wells G12 and H12 were left empty in the clear plate as the blank. Plates were then incubated at 37° C. in a 5% CO2 environment for 24 h.
(§2) On the following day compound dilutions are made up in medium at twice their desired final concentration in a clear round bottomed plate. All dilutions have a final DMSO concentration of 1%.
Once the dilution plate had been made up, controls and compounds were transferred to the assay plate (containing the cells) at 100 μl /well in duplicate plates. Exception: no compound was added to wells A1 and A2 of either plate and 100 μl of 1% DMSO was added to these instead. Plates were then incubated at 37° C. with 5% CO2 for 72 h.
At the end of the incubation time, the cells in the white plate were harvested by washing 23.5 mM beetle luciferin (Promega E1603), 26 mM ATP (Sigma 0-2060) in […] Tris buffer pH 7.8 aliquoted and stored at −80 C was thawed and diluted 1:50 in luciferase assay buffer (20 mM Tricine (Sigma T-0377), 1.07 mM magnesium carbonate hydroxide (Sigma M-5671), 0.1 mM EDTA (Sigma E-5134), 2.67 mM MgSO4 (BDH 101514Y), 33.3 mM dithiothreitol (Sigma 150460) pH 7.8).
The M injector of the microplate luminometer (Lmax, Molecular Devices) was primed with 5×300 μl injections of the diluted substrate. After 5-60 min incubation in lysis buffer at room temperature, a plate was inserted into the luminometer and 100 μl luciferase assay reagent was added by the injector on the luminometer. The signal was measured using a 1 second delay followed by a 4 second measurement programme.

[2] = system: HCV replicon cells Huh 9B; assay type: cell-based
Description: as §1
A flask of cells was trypsinised and a cell count carried out. […] Wells G12 and H12 were left empty in the clear plate as the blank. Plates were then incubated at 37° C. in a 5% CO2 environment for 24 h.
as §2
Exception: no compound was added to wells A1 and A2 of either plate and 100 μl of 1% DMSO was added to these instead. Plates were then incubated at 37° C. with 5% CO2 for 72 h.
The clear plate was stained with 100 μl 0.5% methylene blue in 50% ethanol at room temperature for 1 h, followed by solvation of the absorbed methylene blue in 100 μl per well of 1% lauroylsarcosine. Absorbance of the plate was measured on a microplate spectrophotometer (Molecular Devices) and the absorbance for each concentration of compound expressed as a proportion of the relative DMSO control.

[3] = Hepatitis C virus, 72 h, concentration reducing replicon level (luciferase activity) by 50% vs untreated cell control, 72 h incubation
[4] = concentration reducing total cell area by 50% relative to DMSO controls, methylene blue, absorbance 620 nm, 72 h incubation
[5] = concentration reducing replicon level (luciferase activity) by 50% vs untreated cell control, 72 h incubation

With Cc1ccc(C(=O)Nc2ccc(N3CCOCC3)cc2)cc1-c1ccc(C(=O)Nc2cccc(C(C)O)c2)cc1 (stereo not drawn) [Example 31, 6-Methyl-biphenyl-3,4′-dicarboxylic acid 4′-{[3-(1-hydroxy-ethyl)-phenyl]-amide} 3-[(4-morpholin-4-yl-phenyl)-amide]] as the molecule, how does the IC50 [1] read?
The IC50 was 1000 to 5000 nM.

What about the TD50 [2] of the same molecule?
The TD50 was “** (key: * < 50 μM; ** > 50 μM)”.

Which results are given for Cc1ccc(C(=O)Nc2ccc(N3CCOCC3)cc2)cc1-c1ccc(C(=O)Nc2ccc(C#N)cc2)cc1 [Example 24, 6-Methyl-biphenyl-3,4′-dicarboxylic acid 4′-[(4-cyano-phenyl)-amide] 3-[(4-morpholin-4-yl-phenyl)-amide]]?
IC50 [1]: > 5000 nM; TD50 [2]: ** (key: * < 50 μM; ** > 50 μM)

With CCC1(c2ccc(NC(=O)c3ccc(-c4cc(NC(=O)C5CCCCC5)ccc4C)cc3)cc2)CCC(=O)NC1=O (stereo not drawn) [Example 221, 5′-(Cyclohexanecarbonyl-amino)-2′-methyl-biphenyl-4-carboxylic acid [4-(3-ethyl-2,6-dioxo-piperidin-3-yl)-phenyl]-amide] as the molecule, how does the IC50 [1, 3] read?
Its IC50 is under 1000 nM.

And the TD50 [2, 4]?
The TD50 was “* (* < 50 μM)”.

Which IC50 [1, 5] does the source give for COc1cccc(C(=O)Nc2ccc(-c3cc(C(=O)Nc4ccc(N5CCOCC5)cc4)ccc3C)cc2)c1 [Example 112, 4′-(3-Methoxy-benzoylamino)-6-methyl-biphenyl-3-carboxylic acid (4-morpholin-4-yl-phenyl)-amide] here?
The IC50 was 1000 to 5000 nM.

And the TD50 [2, 4]?
Its TD50 is “* (* < 50 μM)”.

What does the source list for Cc1ccc(C(=O)Nc2ccc(N3CCOCC3)cc2)cc1-c1ccc(C(=O)Nc2ccc(Br)c(Cl)c2)cc1 [Example 30, 6-Methyl-biphenyl-3,4′-dicarboxylic acid 4′-[(4-bromo-3-chloro-phenyl)-amide] 3-[(4-morpholin-4-yl-phenyl)-amide]]?
IC50 [1]: 1000 to 5000 nM; TD50 [2]: ** (key: * < 50 μM; ** > 50 μM)

How did the IC50 [1, 3] turn out when COc1ccccc1C(=O)Nc1ccc(-c2cccc(C(=O)Nc3ccc(CN4CCS(=O)(=O)CC4)cc3)c2)c(C)c1 [Example 134, 4′-(2-Methoxy-benzoylamino)-2′-methyl-biphenyl-3-carboxylic acid [4-(1,1-dioxo-1lambda*6*-thiomorpholin-4-ylmethyl)-phenyl]-amide] was run?
Its IC50 is 1000 to 5000 nM.

What about the TD50 [2, 4] of the same molecule?
Its TD50 is “* (* < 50 μM)”.

For Cc1ccc(C(=O)Nc2ccc(N3CCOCC3)cc2)cc1-c1ccc(NC(=O)Cc2cccc(Cl)c2)cc1 [Example 106, 4′-[2-(3-Chloro-phenyl)-acetylamino]-6-methyl-biphenyl-3-carboxylic acid (4-morpholin-4-yl-phenyl)-amide], which IC50 [1, 3] is on record?
The IC50 was 1000 to 5000 nM.

What about the TD50 [2, 4] of the same molecule?
The TD50 was “** (** > 50 μM)”.

Cc1ccc(NC(=O)C2CC2)cc1-c1ccc(C(=O)Nc2ccc(CN(C)C)cc2)cc1 [Example 223, 5′-(Cyclopropanecarbonyl-amino)-2′-methyl-biphenyl-4-carboxylic acid (4-dimethylaminomethyl-phenyl)-amide] was tested. Which IC50 [1, 3] did it give?
Its IC50 is 1000 to 5000 nM.

And the TD50 [2, 4]?
The TD50 was “* (* < 50 μM)”.

Which IC50 [1] does the source give for Cc1cc(C(=O)Nc2ccc(N3CCOCC3)cc2)ccc1-c1cccc(C(=O)Nc2cccc(Br)c2)c1 [Example 64, 2′-Methyl-biphenyl-3,4′-dicarboxylic acid 3-[(3-bromo-phenyl)-amide] 4′-[(4-morpholin-4-yl-phenyl)-amide]] here?
The IC50 was under 1000 nM.

And the TD50 [2]?
The TD50 was “* (key: * < 50 μM; ** > 50 μM)”.

For Cc1ccc(CNc2ccc3cn[nH]c3c2)cc1-c1ccc(C(=O)Nc2ccc(CN3CCS(=O)(=O)CC3)cc2)cc1 [Example 201, 5′-[(1H-Indazol-6-ylamino)-methyl]-2′-methyl-biphenyl-4-carboxylic acid [4-(1,1-dioxo-1lambda*6*-thiomorpholin-4-ylmethyl)-phenyl]-amide], which TD50 [2, 4] is on record?
Its TD50 is “* (* < 50 μM)”.

Which IC50 [1] does the source give for “6-Methoxy-biphenyl-3,4′-dicarboxylic acid 4′-{[4-(1,1-dioxo-1lambda*6*-thiomorpholin-4-ylmethyl)-phenyl]-amide} 4′{[4-(4-methanesulfonyl-piperazin-1-ylmethyl)-phenyl]-amide} [Example 262]” here?
The IC50 was under 1000 nM.

Which IC50 [1, 5] does the source give for “6-Methyl-biphenyl-3,4′-dicarboxylic acid 4′-[(1H-indol-6-yl)-amide] 3-[(4-morpholin-4-yl-phenyl)-amide] [Example 44]” here?
The IC50 was under 1000 nM.
